Reference: ChEMBL document CHEMBL4765425, “Synthesis of 1,3,4-oxadiazole derivatives with anticonvulsant activity and their binding to the GABA receptor” (Eur J Med Chem, 2020)
Active and inactive are the calls of the source. The rule behind the calls is not given here.

What was measured:
[1] = Neurotoxicity in Kunming mouse at 100 mg/kg, ip measured after 30 mins by rotarod test; type: toxicity, organism-based; settings: in vivo, 0.5 h
[2] = Neurotoxicity in Kunming mouse at 300 mg/kg, ip measured after 30 mins by rotarod test; type: toxicity, organism-based; settings: in vivo, 0.5 h
Mus musculus [3] = assay: Anticonvulsant activity in Kunming mouse assessed as reduction in MES-induced seizure at 300 mg/kg, ip measured after 30 mins; type: functional, organism-based
Mus musculus [4] = assay: Anticonvulsant activity in Kunming mouse assessed as reduction in ScPTZ-induced seizure at 300 mg/kg, ip measured after 30 mins; type: functional, organism-based
Mus musculus [5] = assay: Anticonvulsant activity in Kunming mouse assessed as reduction in ScPTZ-induced seizure at 100 mg/kg, ip measured after 30 mins; type: functional, organism-based
Mus musculus [6] = assay: Anticonvulsant activity in Kunming mouse assessed as reduction in MES-induced seizure at 100 mg/kg, ip measured after 30 mins; type: functional, organism-based
Mus musculus [7] = assay: Anticonvulsant activity in Kunming mouse assessed as reduction in MES-induced seizure at 30 mg/kg, ip measured after 30 mins; type: functional, organism-based
Mus musculus [8] = assay: Anticonvulsant activity in Kunming mouse assessed as reduction in ScPTZ-induced seizure at 30 mg/kg, ip measured after 30 mins; type: functional, organism-based
Mus musculus [9] = assay: Anticonvulsant activity in Kunming mouse assessed as reduction in MES-induced seizure at 2 mg/kg, ip measured after 30 mins; type: functional, organism-based
Rattus norvegicus = assay: Anxiolytic activity in Wistar rat assessed as increase in time spent in open sided arms at 1 mg/kg, ip measured for 5 mins by elevated plus maze test; type: functional, organism-based
[10] = Displacement of [3H]flunitrazepam from GABA-A receptor benzodiazepine site in mouse cerebellum synaptosomal membrane; type: subcellular, Synaptosome
[11] = Protection index, ratio of TD50 for neurotoxicity in ip dosed Kunming mouse to ED50 for anticonvulsant activity in ip dosed ScPTZ-induced Kunming mouse; type: toxicity, organism-based; settings: in vivo, read-out: TI
Mus musculus [12] = assay: Anticonvulsant activity in ip dosed Kunming mouse assessed as reduction in ScPTZ-induced seizure measured after 30 mins; type: functional; settings: 0.5 h
[13] = Neurotoxicity in ip dosed Kunming mouse measured after 30 mins by rotarod test; type: toxicity, organism-based; settings: in vivo
Mus musculus [14] = assay: Anticonvulsant activity in ip dosed Kunming mouse assessed as reduction in MES-induced seizure measured after 30 mins; type: functional; settings: 0.5 h
[15] = Protection index, ratio of TD50 for neurotoxicity in ip dosed Kunming mouse to ED50 for anticonvulsant activity in ip dosed MES-induced Kunming mouse; type: toxicity, organism-based; settings: in vivo, read-out: TI

Structure (SMILES)	Activity [1]	Activity [2]	Activity (Mus musculus [3])	Activity (Mus musculus [4])	Activity (Mus musculus [5])	Activity (Mus musculus [6])	other results
O=C1CCc2cc(OCc3nnc(SCc4ccccc4C(F)(F)F)o3)ccc2N1	Non-Toxic	Non-Toxic	Active	Active			
CC(=O)Nc1ccc(OCc2nnc(SCc3ccccc3C(F)(F)F)o2)cc1	Non-Toxic	Non-Toxic					
CC(=O)Nc1ccc(OCc2nnc(SCc3ccc(C(F)(F)F)cc3)o2)cc1	Non-Toxic	Non-Toxic			Active	Active	
Cc1ccc(CSc2nnc(COc3ccc4c(c3)CCC(=O)N4)o2)cc1	Non-Toxic	Non-Toxic	Active			Active	
CCCCSc1nnc(COc2ccc3c(c2)CCC(=O)N3)o1	Non-Toxic	Non-Toxic	Active	Active			
CC(=O)Nc1ccc(OCc2nnc(SCc3ccc(Cl)cc3)o2)cc1	Non-Toxic	Non-Toxic			inactive	inactive	
CC(=O)Nc1ccc(OCc2nnc(SCc3ccc(C)cc3)o2)cc1	Non-Toxic	Non-Toxic	Active	Active			
CCCCCCCSc1nnc(COc2ccc(NC(C)=O)cc2)o1	Non-Toxic	Non-Toxic					
CC(=O)Nc1ccc(OCc2nnc(SCc3cccc(F)c3)o2)cc1	Non-Toxic	Non-Toxic			inactive	inactive	
CCCCCCCSc1nnc(COc2ccc(-n3cnnc3)cc2)o1	Non-Toxic	Non-Toxic	Active	Active			Activity (Mus musculus [7]): inactive; Activity (Mus musculus [8]): inactive
Cc1cccc(CSc2nnc(COc3ccc4c(c3)CCC(=O)N4)o2)c1	Non-Toxic	Non-Toxic	Active	Active			
CC(=O)Nc1ccc(OCc2nnc(SCc3cccc(Cl)c3)o2)cc1	Non-Toxic	Non-Toxic			inactive	inactive	
CN1C(=O)CN=C(c2ccccc2)c2cc(Cl)ccc21 [DIAZEPAM]							Activity (Mus musculus [9]): Active; Activity (Rattus norvegicus): Active; IC50 [10]: 0.042 µM
CCCCCCCCCSc1nnc(COc2ccc3c(c2)CCC(=O)N3)o1	Non-Toxic	Non-Toxic	Active		inactive		
O=C1CCc2cc(OCc3nnc(SCc4cccc(F)c4)o3)ccc2N1	Non-Toxic	Non-Toxic					
CCC1(C)CC(=O)NC1=O (stereo unspecified) [ETHOSUXIMIDE]	Non-Toxic						selectivity ratio [11]: 3.2; ED50 (Mus musculus [12]): 106 mg/kg; TD50 at 0.5 h [13]: 343 mg/kg
CCCCCSc1nnc(COc2ccc(-n3cnnc3)cc2)o1	Non-Toxic	Non-Toxic			Active	Active	Activity (Mus musculus [7]): Active; selectivity ratio [11]: 15.1; ED50 (Mus musculus [14]): 18.7 mg/kg; selectivity ratio [15]: 22.5; ED50 (Mus musculus [12]): 27.9 mg/kg; IC50 [10]: 3.43 µM; TD50 at 0.5 h [13]: 421 mg/kg
CC(=O)Nc1ccc(OCc2nnc(SCc3ccc(F)cc3)o2)cc1	Non-Toxic	Non-Toxic	Active	Active			
CCCCCCCSc1nnc(COc2ccc3c(c2)CCC(=O)N3)o1	Non-Toxic	Non-Toxic	Active				
CCCCCCCCSc1nnc(COc2ccc(NC(C)=O)cc2)o1	Non-Toxic	Non-Toxic					Activity (Mus musculus [7]): inactive
CCCCSc1nnc(COc2ccc(NC(C)=O)cc2)o1	Non-Toxic	Non-Toxic					Activity (Mus musculus [7]): inactive
O=C1CCc2cc(OCc3nnc(SCc4ccccc4F)o3)ccc2N1	Non-Toxic	Non-Toxic	Active	Active			

Structure (SMILES)	Activity [1]	Activity [2]	Activity (Mus musculus [3])	Activity (Mus musculus [4])	Activity (Mus musculus [5])	Activity (Mus musculus [6])	other results
CC(=O)Nc1ccc(OCc2nnc(SCc3ccccc3)o2)cc1	Non-Toxic	Non-Toxic					
CCCCCCSc1nnc(COc2ccc3c(c2)CCC(=O)N3)o1	Non-Toxic	Non-Toxic			Active	Active	Activity (Mus musculus [7]): Active; selectivity ratio [11]: 26; ED50 (Mus musculus [14]): 10.4 mg/kg; selectivity ratio [15]: 44.7; ED50 (Mus musculus [12]): 17.9 mg/kg; IC50 [10]: 0.88 µM; TD50 at 0.5 h [13]: 466 mg/kg
O=C1CCc2cc(OCc3nnc(SCc4cccc(C(F)(F)F)c4)o3)ccc2N1	Non-Toxic	Non-Toxic	Active	Active			
O=C1CCc2cc(OCc3nnc(SCc4ccc(C(F)(F)F)cc4)o3)ccc2N1	Non-Toxic	Non-Toxic			Active	Active	selectivity ratio [11]: 13.6; ED50 (Mus musculus [14]): 23.1 mg/kg; selectivity ratio [15]: 16.2; ED50 (Mus musculus [12]): 27.6 mg/kg; IC50 [10]: 5.28 µM; TD50 at 0.5 h [13]: 376 mg/kg
CC(=O)Nc1ccc(OCc2nnc(SCc3ccccc3Cl)o2)cc1	Non-Toxic	Non-Toxic	Active	Active			
CCCCSc1nnc(COc2ccc(-n3cnnc3)cc2)o1	Non-Toxic	Non-Toxic	Active				
CC(=O)Nc1ccc(OCc2nnc(SCc3cccc(C)c3)o2)cc1	Non-Toxic	Non-Toxic					
CCCCCCCCCSc1nnc(COc2ccc(NC(C)=O)cc2)o1	Non-Toxic	Non-Toxic			inactive	inactive	
O=C1CCc2cc(OCc3nnc(SCc4ccc(Cl)cc4)o3)ccc2N1	Non-Toxic	Non-Toxic			inactive		
CCCCCSc1nnc(COc2ccc(NC(C)=O)cc2)o1	Non-Toxic	Non-Toxic			Active	Active	selectivity ratio [11]: 13.8; ED50 (Mus musculus [14]): 22.6 mg/kg; selectivity ratio [15]: 17.2; ED50 (Mus musculus [12]): 28.1 mg/kg; IC50 [10]: 1.29 µM; TD50 at 0.5 h [13]: 389 mg/kg
O=C1CCc2cc(OCc3nnc(SCc4cccc(Cl)c4)o3)ccc2N1	Non-Toxic	Non-Toxic	Active	Active			
CC(=O)Nc1ccc(OCc2nnc(SCc3ccccc3F)o2)cc1	Non-Toxic	Non-Toxic	Active	Active			Activity (Mus musculus [8]): inactive
O=C1CCc2cc(OCc3nnc(SCc4ccccc4Cl)o3)ccc2N1	Non-Toxic	Non-Toxic	Active		inactive		
CC(=O)Nc1ccc(OCc2nnc(SCc3ccccc3C)o2)cc1	Non-Toxic	Non-Toxic	Active	Active			
CC(=O)Nc1ccc(OCc2nnc(SCc3cccc(C(F)(F)F)c3)o2)cc1	Non-Toxic	Non-Toxic	Active	Active			
Cc1ccccc1CSc1nnc(COc2ccc3c(c2)CCC(=O)N3)o1	Non-Toxic	Non-Toxic	Active	Active			
CCCCCCSc1nnc(COc2ccc(NC(C)=O)cc2)o1	Non-Toxic	Non-Toxic			Active	Active	selectivity ratio [11]: 15.6; ED50 (Mus musculus [14]): 20.9 mg/kg; selectivity ratio [15]: 20.1; ED50 (Mus musculus [12]): 26.8 mg/kg; IC50 [10]: 4.12 µM; TD50 at 0.5 h [13]: 420 mg/kg
CCCCCCSc1nnc(COc2ccc(-n3cnnc3)cc2)o1	Non-Toxic	Non-Toxic			Active	Active	selectivity ratio [11]: 13.5; ED50 (Mus musculus [14]): 26.6 mg/kg; selectivity ratio [15]: 14.4; ED50 (Mus musculus [12]): 28.4 mg/kg; IC50 [10]: 9.31 µM; TD50 at 0.5 h [13]: 385 mg/kg
O=C1CCc2cc(OCc3nnc(SCc4ccc(F)cc4)o3)ccc2N1	Non-Toxic	Non-Toxic		Active		inactive	
CCCCCCCCSc1nnc(COc2ccc3c(c2)CCC(=O)N3)o1	Non-Toxic	Non-Toxic	Active				Activity (Mus musculus [7]): inactive
O=C1CCc2cc(OCc3nnc(SCc4ccccc4)o3)ccc2N1	Non-Toxic	Non-Toxic	Active				
